Data taken from US20060089340A1, “Novel steroids and steroid mimetics; method for their production; and use thereof” (priority 2003, published 2006).

melting point: 188 to 191 °C
Compound: COc1ccc2c(c1)CC[C@@H]1[C@@H]2CC[C@]2(C)[C@@H](O)C[C@@H](O)[C@]12F
